Source: ChEMBL document CHEMBL3399926, “Synthesis and structure-activity relationships of boswellic acid derivatives as potent VEGFR-2 inhibitors” (Bioorg Med Chem, 2015)

tested on: HUVEC; assay: Antiproliferation activity against HUVEC cells after 48 hrs by CCK-8 assay; type: functional, cell-based; details: Homo sapiens

Structure (SMILES) | IC50
CCNC(=O)n1ncc2c1[C@](C)(C(=O)O)[C@@H]1CC[C@]3(C)[C@H](C(=O)C=C4[C@@H]5[C@@H](C)[C@H](C)CC[C@]5(C)CC[C@]43C)[C@@]1(C)C2 | 5.8 µM
CC(=O)O[C@@H]1CC[C@@]2(C)[C@@H](CC[C@]3(C)[C@@H]2C(=O)C=C2[C@@H]4[C@@H](C)[C@H](C)CC[C@]4(C)CC[C@]23C)[C@@]1(C)C(=O)Nc1ccncc1 | > 100 µM
CC(=O)O[C@@H]1CC[C@@]2(C)[C@@H](CC[C@]3(C)[C@@H]2C(=O)C=C2[C@@H]4[C@@H](C)[C@H](C)CC[C@]4(C)CC[C@]23C)[C@@]1(C)C(=O)O [AKBA] | 7.45 µM
CC(=O)O[C@@H]1CC[C@@]2(C)[C@@H](CC[C@]3(C)[C@@H]2C(=O)C=C2[C@@H]4[C@@H](C)[C@H](C)CC[C@]4(C)CC[C@]23C)[C@@]1(C)C(=O)NN | > 100 µM
CC(=O)O[C@H]1CC[C@@]2(C)[C@@H](CC[C@]3(C)[C@@H]2C(=O)C=C2[C@@H]4[C@@H](C)[C@H](C)CC[C@]4(C)CC[C@]23C)[C@@]1(C)C(=O)O | 35.8 µM
C[C@H]1[C@H](C)CC[C@]2(C)CC[C@]3(C)C(=CC(=O)[C@@H]4[C@@]5(C)CC[C@H](N)[C@](C)(C(=O)O)[C@@H]5CC[C@]43C)[C@H]12 | 5.32 µM
C[C@H]1[C@H](C)CC[C@]2(C)CC[C@]3(C)C(=CC(=O)[C@@H]4[C@@]5(C)CC[C@H](O)[C@](C)(C(=O)O)[C@@H]5CC[C@]43C)[C@H]12 | 27.2 µM
CC(=O)O[C@@H]1CC[C@@]2(C)[C@@H](CC[C@]3(C)[C@@H]2C(=O)C=C2[C@@H]4[C@@H](C)[C@H](C)CC[C@]4(C)CC[C@]23C)[C@@]1(C)C(=O)N1CCCNCC1 | 2.79 µM
CC(=O)O[C@@H]1CC[C@]2(C)[C@H]3C(=O)C=C4[C@@H]5[C@@H](C)[C@H](C)CC[C@]5(C)CC[C@@]4(C)[C@]3(C)CC[C@H]2[C@@]1(C)C#N | > 100 µM
CC(=O)O[C@@H]1CC[C@@]2(C)[C@@H](CC[C@]3(C)[C@@H]2C(=O)C=C2[C@@H]4[C@@H](C)[C@H](C)CC[C@]4(C)CC[C@]23C)[C@@]1(C)C(=O)N1CCNCC1 | 2.36 µM
CC(=O)O[C@@H]1CC[C@@]2(C)[C@@H](CC[C@]3(C)[C@@H]2C(=O)C=C2[C@@H]4[C@@H](C)[C@H](C)CC[C@]4(C)CC[C@]23C)[C@@]1(C)C(N)=O | 5.02 µM
CC(=O)n1ncc2c1[C@](C)(C(=O)O)[C@@H]1CC[C@]3(C)[C@H](C(=O)C=C4[C@@H]5[C@@H](C)[C@H](C)CC[C@]5(C)CC[C@]43C)[C@@]1(C)C2 | 9.27 µM
CC(=O)O[C@@H]1CC[C@@]2(C)[C@@H](CC[C@]3(C)[C@@H]2C(=O)C=C2[C@@H]4[C@@H](C)[C@H](C)CC[C@]4(C)CC[C@]23C)[C@@]1(C)C(=O)N1CCCCC1 | 35.8 µM
C[C@H]1[C@H](C)CC[C@]2(C)CC[C@]3(C)C(=CC(=O)[C@@H]4[C@@]5(C)CC/C(=N\O)[C@](C)(C(=O)O)[C@@H]5CC[C@]43C)[C@H]12 | 10.8 µM
CC(C)COC(=O)n1ncc2c1[C@](C)(C(=O)O)[C@@H]1CC[C@]3(C)[C@H](C(=O)C=C4[C@@H]5[C@@H](C)[C@H](C)CC[C@]5(C)CC[C@]43C)[C@@]1(C)C2 | 3.12 µM
CC(=O)O[C@@H]1CC[C@@]2(C)[C@@H](CC[C@]3(C)[C@@H]2C(=O)C=C2[C@@H]4[C@@H](C)[C@H](C)CC[C@]4(C)CC[C@]23C)[C@@]1(C)C(=O)NC1CCNCC1 | 8.23 µM

Structure (SMILES) | IC50
CC(=O)O[C@@H]1CC[C@@]2(C)[C@@H](CC[C@]3(C)[C@@H]2C(=O)C=C2[C@@H]4[C@@H](C)[C@H](C)CC[C@]4(C)CC[C@]23C)[C@@]1(C)C(=O)N1CCN(C)CC1 | 70.3 µM
CC(=O)O[C@@H]1CC[C@@]2(C)[C@@H](CC[C@]3(C)[C@@H]2C(=O)C=C2[C@@H]4[C@@H](C)[C@H](C)CC[C@]4(C)CC[C@]23C)[C@@]1(C)C(=O)N(C)CCN(C)C | 5.05 µM
CCOC(=O)C(=O)O[C@@H]1CC[C@@]2(C)[C@@H](CC[C@]3(C)[C@@H]2C(=O)C=C2[C@@H]4[C@@H](C)[C@H](C)CC[C@]4(C)CC[C@]23C)[C@@]1(C)C(=O)O | > 100 µM
CC(=O)O[C@@H]1CC[C@@]2(C)[C@@H](CC[C@]3(C)[C@@H]2C(=O)C=C2[C@@H]4[C@@H](C)[C@H](C)CC[C@]4(C)CC[C@]23C)[C@@]1(C)C(=O)N1CCOCC1 | > 100 µM
CC(=O)O[C@@H]1CC[C@@]2(C)[C@@H](CC[C@]3(C)[C@@H]2CC=C2[C@@H]4[C@@H](C)[C@H](C)CC[C@]4(C)CC[C@]23C)[C@@]1(C)C(=O)O | > 100 µM
C[C@H]1[C@H](C)CC[C@]2(C)CC[C@]3(C)C(=CC(=O)[C@@H]4[C@@]5(C)Cc6cnn(C(=O)Nc7ccccc7)c6[C@](C)(C(=O)O)[C@@H]5CC[C@]43C)[C@H]12 | 9.11 µM
C[C@H]1[C@H](C)CC[C@]2(C)CC[C@]3(C)C(=CC(=O)[C@@H]4[C@@]5(C)Cc6cn[nH]c6[C@](C)(C(=O)O)[C@@H]5CC[C@]43C)[C@H]12 | 2.13 µM
C[C@H]1[C@H](C)CC[C@]2(C)CC[C@]3(C)C(=CC(=O)[C@@H]4[C@@]5(C)CC[C@@H](OC(=O)C(F)(F)F)[C@](C)(C(=O)O)[C@@H]5CC[C@]43C)[C@H]12 | 5.13 µM
COC(=O)[C@]1(C)[C@@H]2CC[C@]3(C)[C@H](C(=O)C=C4[C@@H]5[C@@H](C)[C@H](C)CC[C@]5(C)CC[C@]43C)[C@@]2(C)CC[C@H]1OC(C)=O | 4.6 µM
CCNC(=O)[C@]1(C)[C@@H]2CC[C@]3(C)[C@H](C(=O)C=C4[C@@H]5[C@@H](C)[C@H](C)CC[C@]5(C)CC[C@]43C)[C@@]2(C)CC[C@H]1OC(C)=O | > 100 µM
C[C@H]1[C@H](C)CC[C@]2(C)CC[C@]3(C)C(=CC(=O)[C@@H]4[C@@]5(C)Cc6c([nH]c7ccccc67)[C@](C)(C(=O)O)[C@@H]5CC[C@]43C)[C@H]12 | 8.22 µM
CO/N=C1\CC[C@@]2(C)[C@@H](CC[C@]3(C)[C@@H]2C(=O)C=C2[C@@H]4[C@@H](C)[C@H](C)CC[C@]4(C)CC[C@]23C)[C@@]1(C)C(=O)O | 13.1 µM
C[C@H]1[C@H](C)CC[C@]2(C)CC[C@]3(C)C(=CC(=O)[C@@H]4[C@@]5(C)Cc6cnn(C(=O)c7ccccc7)c6[C@](C)(C(=O)O)[C@@H]5CC[C@]43C)[C@H]12 | 6.31 µM
CC(=O)N[C@H]1CC[C@@]2(C)[C@@H](CC[C@]3(C)[C@@H]2C(=O)C=C2[C@@H]4[C@@H](C)[C@H](C)CC[C@]4(C)CC[C@]23C)[C@@]1(C)C(=O)O | 47.5 µM
CC(=O)O[C@@H]1CC[C@@]2(C)[C@@H](CC[C@]3(C)[C@@H]2C(=O)C=C2[C@@H]4[C@@H](C)[C@H](C)CC[C@]4(C)CC[C@]23C)[C@@]1(C)C(=O)NCCN | 3.76 µM
C[C@H]1[C@H](C)CC[C@]2(C)CC[C@]3(C)C(=CC(=O)[C@@H]4[C@@]5(C)Cc6cnoc6[C@](C)(C(=O)O)[C@@H]5CC[C@]43C)[C@H]12 | 9.92 µM

tested on: HUVEC; assay: Induction of apoptosis in HUVEC cells; type: functional, cell-based; details: Homo sapiens

Structure (SMILES) | Activity
CC(=O)O[C@@H]1CC[C@@]2(C)[C@@H](CC[C@]3(C)[C@@H]2C(=O)C=C2[C@@H]4[C@@H](C)[C@H](C)CC[C@]4(C)CC[C@]23C)[C@@]1(C)C(=O)N1CCNCC1 | Dose-dependent effect
C[C@H]1[C@H](C)CC[C@]2(C)CC[C@]3(C)C(=CC(=O)[C@@H]4[C@@]5(C)Cc6cn[nH]c6[C@](C)(C(=O)O)[C@@H]5CC[C@]43C)[C@H]12 | Dose-dependent effect
